Measured values published in patent US20240246908A1 (ORION CORPORATION, priority 2021, published 2024).

System: YAP-TEAD
Assay: TEAD inhibition, Hippo Pathway TEAD Reporter MCF-7 luciferase assay
Type: cell-based
Conditions: Homo sapiens, MCF7, 24 h, Hippo Pathway TEAD Reporter MCF-7 cells, luciferase activity after 24 h; read-out: IC50 of the test compounds on YAP-TEAD inhibition (Group)
Method in brief: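 MCF-7 cells carrying a TEAD-responsive firefly luciferase reporter, with nuclear YAP1 driving constitutive expression, were treated the day after plating with compounds (11 concentrations, 4 replicates; 0.1% DMSO control). After 24 h, luciferase was read by ONE-Glo luminescence and IC50 determined.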

| IC50 [nM] | Structure (SMILES) |
| --- | --- |
| 50 to 300 | COc1ccc(Oc2cccc(C(F)(F)F)c2)cc1NC(=O)C1CC(=O)N1 (stereo not shown) [Compound 8, N-(2-Methoxy-5-(3-(trifluoromethyl)phenoxy)phenyl)-4-oxoazetidine-2-carboxamide] |
| < 50 | COc1cc(NC(=O)C2CCC(=O)N2)cc(Oc2ccc(C(F)(F)F)cc2)c1 (stereo not shown) [Compound 253, N-(3-Methoxy-5-(4-(trifluoromethyl)phenoxy)phenyl)-5-oxopyrro-lidine-2-carboxamide] |
| 301 to 2000 | COc1ccc(OCC2CC(F)(F)C2)cc1NC(=O)C1CCC(=O)N1C (stereo not shown) [Compound 302, N-(5-((3,3-Difluorocyclobutyl)methoxy)-2-methoxyphenyl)-1-methyl-5-oxopyrrolidine-2-carboxamide] |
| < 50 | COc1ccc(Oc2ccc(C(F)(F)F)cc2)cc1NC(=O)C1CCNC(=O)C1 (stereo not shown) [Compound 322, N-(2-Methoxy-5-(4-(trifluoromethyl)phenoxy)phenyl)-2-oxopiperidine-4-carboxamide] |
| 301 to 2000 | CN1C(=O)CCC1C(=O)Nc1cc(Oc2cccc(C(F)(F)F)c2)ccc1F (stereo not shown) [Compound 41, N-(2-Fluoro-5-(3-(trifluoromethyl)phenoxy)phenyl)-1-methyl-5-oxopyrrolidine-2-carboxamide] |
| 301 to 2000 | COC(=O)CN1C(=O)CCC1C(=O)Nc1cc(Oc2ccc(C(F)(F)F)cc2)ccc1OC (stereo not shown) [Compound 354, Methyl 2-(2-((2-methoxy-5-(4-(trifluoromethyl)phenoxy)phenyl)carbamoyl)-5-oxopyrrolidin-1-yl)acetate] |
| 301 to 2000 | Cc1c(Oc2cccc(C(F)(F)F)c2)cc(NC(=O)C2CCC(=O)N2)c2c1OCCO2 (stereo not shown) [Compound 61, N-(8-Methyl-7-(3-(trifluoromethyl)phenoxy)-2,3-dihydrobenzo[b][1,4]dioxin-5-yl)-5-oxopyrrolidine-2-carboxamide] |
| 301 to 2000 | O=C1CCC(C(=O)Nc2cc(OC3CCC(F)(F)CC3)cc3c2OCCO3)CN1 (stereo not shown) [Compound 191, N-(7-((4,4-Difluorocyclohexyl)oxy)-2,3-dihydrobenzo[b][1,4]dioxin-5-yl)-6-oxopiperidine-3-carboxamide] |
| < 50 | COc1ccc(Oc2ccc(C(F)(F)F)cc2)cc1NC(=O)C1CCC(=O)N1 (stereo not shown) [Compound 1, N-(2-Methoxy-5-(4-(trifluoromethyl)phenoxy)phenyl)-5-oxo-pyrrolidine-2-carboxamide] |
| 50 to 300 | COc1ccc(Oc2ccc(C(F)(F)F)cc2)cc1NC(=O)C1CCC(=O)N1CC1CC1 (stereo not shown) [Compound 147, 1-(Cyclopropylmethyl)-N-(2-methoxy-5-(4-(trifluoromethyl)phenoxy)phenyl)-5-oxopyrrolidine-2-carboxamide] |
| 50 to 300 | COc1ccc(Oc2ccc(Cl)cn2)cc1NC(=O)[C@@H]1CCC(=O)N1C [Compound 288, (S)—N-(5-((5-Chloropyridin-2-yl)oxy)-2-methoxyphenyl)-1-methyl-5-oxo-pyrrolidine-2-carboxamide] |
| 301 to 2000 | COc1ccc(Oc2ccc(C(F)(F)F)cc2)cc1NC(=O)C12CCC(=O)N1CCS2(=O)=O (stereo not shown) [Compound 252, N-(2-Methoxy-5-(4-(trifluoromethyl)phenoxy)phenyl)-5-oxotetrahydropyrrolo[2,1-b]thiazole-7a(5H)-carboxamide 1,1-dioxide] |
| < 50 | CN1C(=O)CCC1C(=O)Nc1cc(Oc2ccc(C(F)(F)F)cc2)cc2c1OCC2 (stereo not shown) [Compound 237, 1-Methyl-5-oxo-N-(5-(4-(trifluoromethyl)phenoxy)-2,3-dihydrobenzofuran-7-yl)pyrrolidine-2-carboxamide] |
| 50 to 300 | O=C1CCC(C(=O)Nc2cc(COc3cccc(F)c3)cc3ccoc23)N1 (stereo not shown) [Compound 17, N-(5-((3-Fluorophenoxy)methyl)benzofuran-7-yl)-5-oxopyrrolidine-2-carboxamide] |
| 50 to 300 | COc1ccc(Oc2ccc(C(F)F)cn2)cc1NC(=O)C1CCC(=O)N1C (stereo not shown) [Compound 211, N-(5-((5-(Difluoromethyl)pyridin-2-yl)oxy)-2-methoxyphenyl)-1-methyl-5-oxopyrrolidine-2-carboxamide] |
| 50 to 300 | COc1cc(NC(=O)C2CCC(=O)N2C)cc(Oc2cccc(C(F)(F)F)c2)c1 (stereo not shown) [Compound 273, N-(3-Methoxy-5-(3-(trifluoromethyl)phenoxy)phenyl)-1-methyl-5-oxo-pyrrolidine-2-carboxamide] |
| 50 to 300 | CN1C(=O)CCC1C(=O)Nc1cc(Oc2ccc(C(F)(F)F)cc2)ccc1Cl (stereo not shown) [Compound 258, N-(2-Chloro-5-(4-(trifluoromethyl)phenoxy)phenyl)-1-methyl-5-oxopyrrolidine-2-carboxamide] |
| < 50 | CCN1C(=O)CC[C@@H]1C(=O)Nc1cc(Oc2ccc(C(F)(F)F)cn2)cc2c1OCC2 [Compound 170, (R)-1-Ethyl-5-oxo-N-(5-((5-(trifluoromethyl)pyridin-2-yl)oxy)-2,3-dihydro-benzofuran-7-yl)pyrrolidine-2-carboxamide] |
| 50 to 300 | COc1ccc(Oc2ccc(OC)c(NC(=O)C3CCC(=O)N3C)c2)cc1F (stereo not shown) [Compound 295, N-(5-(3-Fluoro-4-methoxyphenoxy)-2-methoxyphenyl)-1-methyl-5-oxo-pyrrolidine-2-carboxamide] |

Further lines, the compound ahead of its results:

| Structure (SMILES) | IC50 [nM] |
| --- | --- |
| COc1ccc(Oc2ccc(C(F)(F)F)cc2)cc1NC(=O)[C@H]1CNC(=O)N1C [Compound 140, (R)—N-(2-Methoxy-5-(4-(trifluoromethyl)phenoxy)phenyl)-3-methyl-2-oxo-imidazolidine-4-carboxamide] | 50 to 300 |
| CN1C(=O)CCC1C(=O)Nc1cc(Oc2ccc(C(F)(F)F)cn2)cc2c1ncn2C (stereo not shown) [Compound 244, 1-Methyl-N-(1-methyl-6-((5-(trifluoromethyl)pyridin-2-yl)oxy)-1H-benzo-[d]imidazol-4-yl)-5-oxopyrrolidine-2-carboxamide] | 50 to 300 |
| CN1C(=O)CCC1C(=O)Nc1cc(COc2cccc(F)c2)cc2c1OCC2 (stereo not shown) [Compound 32, N-(5-((3-Fluorophenoxy)methyl)-2,3-dihydrobenzofuran-7-yl)-1-methyl-5-oxo-pyrrolidine-2-carboxamide] | 50 to 300 |
| COc1ccc(Oc2ccc(C(F)(F)F)nc2)cc1NC(=O)C1CCC(=O)N1 (stereo not shown) [Compound 62, N-(2-Methoxy-5-((6-(trifluoromethyl)pyridin-3-yl)oxy)phenyl)-5-oxopyrrolidine-2-carboxamide] | 50 to 300 |
| COc1ccc(Oc2ccc(C(F)(F)F)cn2)cc1NC(=O)C1CNC(=O)N1C (stereo not shown) [Compound 118, N-(2-Methoxy-5-((5-(trifluoromethyl)pyridin-2-yl)oxy)phenyl)-3-methyl-2-oxoimidazolidine-4-carboxamide] | < 50 |
| COc1ccc(O[C@H]2CCC[C@H](C(F)(F)F)C2)cc1NC(=O)[C@H]1CCC(=O)N1C [Compound 269, (R)—N-(2-Methoxy-5-(((1S,3S)-3-(trifluoromethyl)cyclohexyl)oxy)phenyl)-1-methyl-5-oxopyrrolidine-2-carboxamide] | 50 to 300 |
| COc1ccc(Oc2ccc(C(F)(F)F)cn2)cc1NC(=O)C1CNC(=O)C1 (stereo not shown) [Compound 344, N-(2-Methoxy-5-((5-(trifluoromethyl)pyridin-2-yl)oxy)phenyl)-5-oxopyrrolidine-3-carboxamide carboxamide] | 301 to 2000 |
| CN1C(=O)CCC1C(=O)Nc1cc(Oc2ccc(C(F)(F)F)cc2)cc2ccoc12 (stereo not shown) [Compound 185, 1-Methyl-5-oxo-N-(5-(4-(trifluoromethyl)phenoxy)benzofuran-7-yl)pyrrolidine-2-carboxamide] | < 50 |
| O=C1CCC(C(=O)Nc2cc(COc3cccc(F)c3)cc3c2OCO3)N1 (stereo not shown) [Compound 27, N-(6-((3-Fluorophenoxy)methyl)benzo[d][1,3]dioxol-4-yl)-5-oxopyrrolidine-2-carboxamide] | 50 to 300 |
| COc1cc(Oc2ccc(O)c(NC(=O)C3CCC(=O)N3C)c2)ccc1C(F)(F)F (stereo not shown) [Compound 410, N-(2-Hydroxy-5-(3-methoxy-4-(trifluoromethyl)phenoxy)phenyl)-1-methyl-5-oxopyrrolidine-2-carboxamide] | 301 to 2000 |
| COc1ccc(Oc2ccc(C(F)(F)F)cc2)cc1NC(=O)C1CNC(=O)C1 (stereo not shown) [Compound 335, N-(2-Methoxy-5-(4-(trifluoromethyl)phenoxy)phenyl)-5-oxopyrrolidine-3-carboxamide] | < 50 |
| COc1ccc(COc2cccc(F)c2)cc1NC(=O)C1CN(CCF)C1 [Compound 5, 1-(2-Fluoroethyl)-N-(5-((3-fluorophenoxy)methyl)-2-methoxyphenyl)azetidine-3-carboxamide] | 301 to 2000 |
| CN1C(=O)CCC1C(=O)Nc1cc(Oc2ccc(F)c(F)c2)ccc1-c1nnco1 (stereo not shown) [Compound 224, N-(5-(3,4-Difluorophenoxy)-2-(1,3,4-oxadiazol-2-yl)phenyl)-1-methyl-5-oxopyrrolidine-2-carboxamide] | 301 to 2000 |
| COc1ccc(O[C@H]2CCC[C@H](C(F)(F)F)C2)cc1NC(=O)C1CCC(=O)N1 (stereo partly drawn) [Compound 267, N-(2-Methoxy-5-(((1S,3S)-3-(trifluoromethyl)cyclohexyl)oxy)phenyl)-5-oxo-pyrrolidine-2-carboxamide] | 50 to 300 |
| COc1ccc(Oc2ccc(C(F)(F)F)cc2)cc1NC(=O)[C@@H]1CNC(=O)C1 [Compound 355, (S)—N-(2-Methoxy-5-(4-(trifluoromethyl)phenoxy)phenyl)-5-oxopyrrolidine-3-carboxamide] | < 50 |
| CN1C(=O)CCC1C(=O)Nc1cc(Oc2cccc(C(F)(F)F)c2)cc2c1NC(=O)CO2 (stereo not shown) [Compound 106, 1-Methyl-5-oxo-N-(3-oxo-7-(3-(trifluoromethyl)phenoxy)-3,4-dihydro-2H-benzo[b][1,4]oxazin-5-yl)pyrrolidine-2-carboxamide] | 301 to 2000 |
| COc1ccc(Oc2cnc(F)c(C)c2)cc1NC(=O)C1CCC(=O)N1 (stereo not shown) [Compound 262, N-(5-((6-Fluoro-5-methylpyridin-3-yl)oxy)-2-methoxyphenyl)-5-oxopyrrolidine-2-carboxamide] | 301 to 2000 |
| COc1ccc(Oc2ccc(C(F)(F)F)cc2)cc1NC(=O)C1CCS(=O)(=O)C1 (stereo not shown) [Compound 116, N-(2-Methoxy-5-(4-(trifluoromethyl)phenoxy)phenyl)tetrahydrothiophene-3-carboxamide 1,1-dioxide] | 50 to 300 |
